# Reference: ChEMBL document CHEMBL4118162, “Discovery of novel anti-tuberculosis agents with pyrrolo[1,2-a]quinoxaline-based scaffold” (Bioorg Med Chem Lett, 2018)
# System: not listed separately
# Assay: Effective permeability of the compound in PBS/EtOH at 50 ug/mL after 18 hrs by PAMPA-BBB assay
# Conditions: not given
row,Compound,"Papp at 18 h, 50 ug/mL [×10⁻⁶ cm/s]"
1,COc1ccc(CCNCc2cc(-c3ccccc3F)n3c2cnc2cc(Cl)ccc23)cc1OC,9.39

# Molecular target: T1, Enoyl-[acyl-carrier-protein] reductase [NADH] (Mycobacterium tuberculosis, UniProt P9WGR1)
# T1 sequence (P9WGR1 whole entry): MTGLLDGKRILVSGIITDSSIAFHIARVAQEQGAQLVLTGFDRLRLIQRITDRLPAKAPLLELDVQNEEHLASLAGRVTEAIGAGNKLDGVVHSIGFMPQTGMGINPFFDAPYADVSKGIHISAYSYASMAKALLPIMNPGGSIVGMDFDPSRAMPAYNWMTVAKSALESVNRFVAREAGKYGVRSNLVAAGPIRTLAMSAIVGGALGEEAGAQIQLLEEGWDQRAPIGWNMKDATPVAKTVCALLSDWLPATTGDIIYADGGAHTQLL
# Assay: Inhibition of Mycobacterium tuberculosis InhA using trans-2-decenoyl-N-acetylcysteamine as substrate preincubated for 1 hr followed by substrate addition measured every 30 secs for 5 mins
# Conditions: not given
row,Compound,IC50 [µM]
1,Fc1ccccc1-c1cc(CNCCc2ccc(Br)cc2)c2cnc3cc(Cl)ccc3n12,48
2,Fc1ccccc1-c1cc(CNCc2ccccc2)c2cnc3cc(Br)ccc3n12,54

# System: not listed separately
# Assay: Cytotoxicity against human LO2 cells assessed as growth inhibition up to 20 uM after 48 hrs by MTT assay
# Type: cell-based, L02
# Conditions: read-out: GI
row,Compound,inhibition at 48 h [%]
1,CCCNCc1cc(-c2ccccc2F)n2c1cnc1cc(Cl)ccc12,73.7
2,CCCCNCc1cc(-c2ccccc2F)n2c1cnc1cc(Cl)ccc12,73.7
3,Fc1ccccc1-c1cc(CNCCc2ccc(Br)cc2)c2cnc3ccccc3n12,72.3
4,Fc1ccc2c(c1)ncc1c(CNCc3ccccc3)cc(-c3ccccc3F)n12,20.1
5,Fc1ccccc1-c1cc(CNCCc2ccc(Br)cc2)c2cnc3cc(Cl)ccc3n12,40.1
6,Fc1ccccc1-c1cc(CNCc2ccccc2)c2cnc3cc(Cl)ccc3n12,43.7
7,COc1ccc(CCNCc2cc(-c3ccccc3F)n3c2cnc2cc(Cl)ccc23)cc1OC,53.5
8,Fc1ccccc1-c1cc(CNCc2ccccc2)c2cnc3cc(Br)ccc3n12,5.38
9,CCCCNCc1cc(-c2ccccc2F)n2c1cnc1cc(Br)ccc12,68.7
10,CC(C)NCc1cc(-c2ccccc2F)n2c1cnc1cc(Cl)ccc12,76.4

# System: not listed separately
# Assay: Cytotoxicity against human SKOV3 cells assessed as growth inhibition up to 20 uM after 48 hrs by MTT assay
# Type: cell-based, SK-OV-3
# Conditions: read-out: GI
row,Compound,inhibition at 48 h [%]
1,CCCNCc1cc(-c2ccccc2F)n2c1cnc1cc(Cl)ccc12,77
2,CCCCNCc1cc(-c2ccccc2F)n2c1cnc1cc(Cl)ccc12,75.9
3,Fc1ccccc1-c1cc(CNCCc2ccc(Br)cc2)c2cnc3ccccc3n12,69.3
4,Fc1ccc2c(c1)ncc1c(CNCc3ccccc3)cc(-c3ccccc3F)n12,-7.09
5,Fc1ccccc1-c1cc(CNCCc2ccc(Br)cc2)c2cnc3cc(Cl)ccc3n12,71.8
6,Fc1ccccc1-c1cc(CNCc2ccccc2)c2cnc3cc(Cl)ccc3n12,19.4
7,COc1ccc(CCNCc2cc(-c3ccccc3F)n3c2cnc2cc(Cl)ccc23)cc1OC,84.4
8,Fc1ccccc1-c1cc(CNCc2ccccc2)c2cnc3cc(Br)ccc3n12,13.3
9,CCCCNCc1cc(-c2ccccc2F)n2c1cnc1cc(Br)ccc12,66.3
10,CC(C)NCc1cc(-c2ccccc2F)n2c1cnc1cc(Cl)ccc12,76.4

# System: Mycobacterium tuberculosis
# Assay: Antitubercular activity against Mycobacterium tuberculosis H37Ra assessed as as inhibition of bacterial growth at 10 ug/ml up to 7 days
# Type: functional
# Conditions: 168 h, read-out: GI
row,Compound,inhibition of growth at 10 µg/mL [%]
1,Fc1ccccc1-c1cc(CNCc2c(F)cccc2Cl)c2cnc3ccccc3n12,≥ 90
2,CCCNCc1cc(-c2ccccc2F)n2c1cnc1cc(Cl)ccc12,≥ 90
3,CCCCNCc1cc(-c2ccccc2F)n2c1cnc1cc(Cl)ccc12,≥ 90
4,CCN(CC)Cc1cc(-c2ccccc2F)n2c1cnc1ccccc12,≥ 90
5,Fc1ccccc1-c1cc(CNCCc2ccc(Br)cc2)c2cnc3ccccc3n12,≥ 90
6,Fc1ccccc1-c1cc(CN2CCOCC2)c2cnc3cc(Cl)ccc3n12,≥ 90
7,Fc1ccc2c(c1)ncc1c(CNCc3ccccc3)cc(-c3ccccc3F)n12,≥ 90
8,Fc1ccccc1-c1cc(CNCCc2ccc(Br)cc2)c2cnc3cc(Cl)ccc3n12,≥ 90
9,Fc1ccccc1-c1cc(CNCc2ccccc2)c2cnc3cc(Cl)ccc3n12,≥ 90
10,COc1ccc(CCNCc2cc(-c3ccccc3F)n3c2cnc2cc(Cl)ccc23)cc1OC,≥ 90
11,Fc1ccccc1-c1cc(CN2CCN(c3ccccc3C(F)(F)F)CC2)c2cnc3cc(Cl)ccc3n12,≥ 90
12,CCN(CC)Cc1cc(-c2ccccc2F)n2c1cnc1cc(Cl)ccc12,≥ 90
13,Fc1ccccc1-c1cc(CNCc2ccccc2)c2cnc3cc(Br)ccc3n12,≥ 90
14,Fc1ccccc1-c1cc(CNCc2c(F)cccc2Cl)c2cnc3cc(Cl)ccc3n12,≥ 90
15,CCCCNCc1cc(-c2ccccc2F)n2c1cnc1ccccc12,≥ 90
16,CCCNCc1cc(-c2ccccc2F)n2c1cnc1ccccc12,≥ 90
17,CCCCNCc1cc(-c2ccccc2F)n2c1cnc1cc(Br)ccc12,≥ 90
18,CC(C)NCc1cc(-c2ccccc2F)n2c1cnc1ccccc12,≥ 90
19,Fc1ccccc1-c1cc(CNCc2ccccc2)c2cnc3ccccc3n12,≥ 90
20,COc1ccc(CCNCc2cc(-c3ccccc3F)n3c2cnc2ccccc23)cc1OC,≥ 90
21,CC(C)NCc1cc(-c2ccccc2F)n2c1cnc1cc(Cl)ccc12,≥ 90
22,CCCCNCc1cc(-c2ccccc2F)n2c1cnc1cc(F)ccc12,≥ 90
23,CCN(Cc1ccccc1)Cc1cc(-c2ccccc2F)n2c1cnc1cc(Cl)ccc12,≥ 90

# System: Mycobacterium tuberculosis
# Assay: Antitubercular activity against Mycobacterium tuberculosis H37Ra up to 7 days
# Type: functional
# Conditions: 168 h
row,Compound,MIC90 [µg/mL]
1,Fc1ccccc1-c1cc(CNCc2c(F)cccc2Cl)c2cnc3ccccc3n12,> 50
2,CCCNCc1cc(-c2ccccc2F)n2c1cnc1cc(Cl)ccc12,10
3,CCCCNCc1cc(-c2ccccc2F)n2c1cnc1cc(Cl)ccc12,10
4,CCN(CC)Cc1cc(-c2ccccc2F)n2c1cnc1ccccc12,> 50
5,Fc1ccccc1-c1cc(CNCCc2ccc(Br)cc2)c2cnc3ccccc3n12,5
6,Fc1ccccc1-c1cc(CN2CCOCC2)c2cnc3cc(Cl)ccc3n12,> 50
7,Fc1ccc2c(c1)ncc1c(CNCc3ccccc3)cc(-c3ccccc3F)n12,10
8,Fc1ccccc1-c1cc(CNCCc2ccc(Br)cc2)c2cnc3cc(Cl)ccc3n12,5
9,Fc1ccccc1-c1cc(CNCc2ccccc2)c2cnc3cc(Cl)ccc3n12,5
10,COc1ccc(CCNCc2cc(-c3ccccc3F)n3c2cnc2cc(Cl)ccc23)cc1OC,5
11,Fc1ccccc1-c1cc(CN2CCN(c3ccccc3C(F)(F)F)CC2)c2cnc3cc(Cl)ccc3n12,> 50
12,CCN(CC)Cc1cc(-c2ccccc2F)n2c1cnc1cc(Cl)ccc12,10 to 50
13,Fc1ccccc1-c1cc(CNCc2ccccc2)c2cnc3cc(Br)ccc3n12,10
14,Fc1ccccc1-c1cc(CNCc2c(F)cccc2Cl)c2cnc3cc(Cl)ccc3n12,> 50
15,CCCCNCc1cc(-c2ccccc2F)n2c1cnc1ccccc12,10 to 50
16,CCCNCc1cc(-c2ccccc2F)n2c1cnc1ccccc12,10 to 50
17,CCCCNCc1cc(-c2ccccc2F)n2c1cnc1cc(Br)ccc12,10
18,CC(C)NCc1cc(-c2ccccc2F)n2c1cnc1ccccc12,10 to 50
19,Fc1ccccc1-c1cc(CNCc2ccccc2)c2cnc3ccccc3n12,10 to 50
20,COc1ccc(CCNCc2cc(-c3ccccc3F)n3c2cnc2ccccc23)cc1OC,10 to 50
21,CC(C)NCc1cc(-c2ccccc2F)n2c1cnc1cc(Cl)ccc12,10
22,CCCCNCc1cc(-c2ccccc2F)n2c1cnc1cc(F)ccc12,25
23,CCN(Cc1ccccc1)Cc1cc(-c2ccccc2F)n2c1cnc1cc(Cl)ccc12,> 50

# System: not listed separately
# Assay: Solubility of the compound in water at 500 ug/mL by HPLC method
# Type: physicochemical
# Conditions: not given
row,Compound,solubility [µg/mL]
1,Fc1ccccc1-c1cc(CNCc2c(F)cccc2Cl)c2cnc3ccccc3n12,20.8
2,CCCNCc1cc(-c2ccccc2F)n2c1cnc1cc(Cl)ccc12,17.5
3,CCCCNCc1cc(-c2ccccc2F)n2c1cnc1cc(Cl)ccc12,20
4,Fc1ccccc1-c1cc(CNCCc2ccc(Br)cc2)c2cnc3ccccc3n12,< 2.5
5,Fc1ccccc1-c1cc(CN2CCOCC2)c2cnc3cc(Cl)ccc3n12,< 2.5
6,Fc1ccc2c(c1)ncc1c(CNCc3ccccc3)cc(-c3ccccc3F)n12,4.9
7,Fc1ccccc1-c1cc(CNCCc2ccc(Br)cc2)c2cnc3cc(Cl)ccc3n12,< 2.5
8,Fc1ccccc1-c1cc(CNCc2ccccc2)c2cnc3cc(Cl)ccc3n12,< 2.5
9,Fc1ccccc1-c1cc(CN2CCN(c3ccccc3C(F)(F)F)CC2)c2cnc3cc(Cl)ccc3n12,< 2.5
10,Fc1ccccc1-c1cc(CNCc2ccccc2)c2cnc3cc(Br)ccc3n12,< 2.5
11,Fc1ccccc1-c1cc(CNCc2c(F)cccc2Cl)c2cnc3cc(Cl)ccc3n12,< 2.5
12,CCCCNCc1cc(-c2ccccc2F)n2c1cnc1ccccc12,120
13,CCCNCc1cc(-c2ccccc2F)n2c1cnc1ccccc12,73.3
14,CCCCNCc1cc(-c2ccccc2F)n2c1cnc1cc(Br)ccc12,6.74
15,CC(C)NCc1cc(-c2ccccc2F)n2c1cnc1ccccc12,70.5
16,Fc1ccccc1-c1cc(CNCc2ccccc2)c2cnc3ccccc3n12,21.1
17,COc1ccc(CCNCc2cc(-c3ccccc3F)n3c2cnc2ccccc23)cc1OC,50.7
18,CC(C)NCc1cc(-c2ccccc2F)n2c1cnc1cc(Cl)ccc12,33.2
19,CCCCNCc1cc(-c2ccccc2F)n2c1cnc1cc(F)ccc12,8.61
20,CCN(Cc1ccccc1)Cc1cc(-c2ccccc2F)n2c1cnc1cc(Cl)ccc12,< 2.5

# Molecular target: T2, Enoyl-[acyl-carrier-protein] reductase [NADH] (Mycobacterium tuberculosis) (UniProt P9WGR1)
# T2 sequence (whole entry): T1 sequence (P9WGR1 whole entry)
# Assay: Inhibition of Mycobacterium tuberculosis InhA at 100 uM using trans-2-decenoyl-N-acetylcysteamine as substrate preincubated for 1 hr followed by substrate addition measured every 30 secs for 5 mins
# Conditions: not given
row,Compound,inhibition [%]
1,CCCNCc1cc(-c2ccccc2F)n2c1cnc1cc(Cl)ccc12,24.8
2,CCCCNCc1cc(-c2ccccc2F)n2c1cnc1cc(Cl)ccc12,33.3
3,Fc1ccccc1-c1cc(CNCCc2ccc(Br)cc2)c2cnc3ccccc3n12,17.3
4,Fc1ccc2c(c1)ncc1c(CNCc3ccccc3)cc(-c3ccccc3F)n12,48.5
5,Fc1ccccc1-c1cc(CNCCc2ccc(Br)cc2)c2cnc3cc(Cl)ccc3n12,64.9
6,Fc1ccccc1-c1cc(CNCc2ccccc2)c2cnc3cc(Cl)ccc3n12,37
7,COc1ccc(CCNCc2cc(-c3ccccc3F)n3c2cnc2cc(Cl)ccc23)cc1OC,40.4
8,Fc1ccccc1-c1cc(CNCc2ccccc2)c2cnc3cc(Br)ccc3n12,62
9,CCCCNCc1cc(-c2ccccc2F)n2c1cnc1ccccc12,14.4
10,CCCNCc1cc(-c2ccccc2F)n2c1cnc1ccccc12,5.21
11,CCCCNCc1cc(-c2ccccc2F)n2c1cnc1cc(Br)ccc12,50.2
12,CC(C)NCc1cc(-c2ccccc2F)n2c1cnc1ccccc12,17.3
13,Fc1ccccc1-c1cc(CNCc2ccccc2)c2cnc3ccccc3n12,22.1
14,COc1ccc(CCNCc2cc(-c3ccccc3F)n3c2cnc2ccccc23)cc1OC,6.28
15,CC(C)NCc1cc(-c2ccccc2F)n2c1cnc1cc(Cl)ccc12,27.4
16,CCCCNCc1cc(-c2ccccc2F)n2c1cnc1cc(F)ccc12,7.88

# System: not listed separately
# Assay: Solubility of the compound in water at 180 uM by HPLC method
# Type: physicochemical
# Conditions: not given
row,Compound,solubility at 180 µM [µg/mL]
1,COc1ccc(CCNCc2cc(-c3ccccc3F)n3c2cnc2cc(Cl)ccc23)cc1OC,90

# System: not listed separately
# Assay: Cytotoxicity against human MDA231 cells assessed as growth inhibition up to 20 uM after 48 hrs by MTT assay
# Type: cell-based, MDA-MB-231
# Conditions: read-out: GI
row,Compound,inhibition at 48 h [%]
1,CCCNCc1cc(-c2ccccc2F)n2c1cnc1cc(Cl)ccc12,74.5
2,CCCCNCc1cc(-c2ccccc2F)n2c1cnc1cc(Cl)ccc12,74.5
3,Fc1ccccc1-c1cc(CNCCc2ccc(Br)cc2)c2cnc3ccccc3n12,76.1
4,Fc1ccc2c(c1)ncc1c(CNCc3ccccc3)cc(-c3ccccc3F)n12,-8.04
5,Fc1ccccc1-c1cc(CNCCc2ccc(Br)cc2)c2cnc3cc(Cl)ccc3n12,70.5
6,Fc1ccccc1-c1cc(CNCc2ccccc2)c2cnc3cc(Cl)ccc3n12,27.8
7,COc1ccc(CCNCc2cc(-c3ccccc3F)n3c2cnc2cc(Cl)ccc23)cc1OC,76.4
8,Fc1ccccc1-c1cc(CNCc2ccccc2)c2cnc3cc(Br)ccc3n12,32.1
9,CCCCNCc1cc(-c2ccccc2F)n2c1cnc1cc(Br)ccc12,70.8
10,CC(C)NCc1cc(-c2ccccc2F)n2c1cnc1cc(Cl)ccc12,71.7
